The target of one experiment is Histone deacetylase. The experiment can be described thus: Inhibition of HDAC in human HeLa nuclear extract using Fluor de Lys as substrate incubated for 20 mins by fluorometric assay. The experiment is classed as subcellular, Nucleus.
For the next experiment, the system named is U2OS. In words: Cytotoxicity against human U2OS cells assessed as reduction in cell viability incubated for 72 hrs by EZ-Cytox colorimetric assay. The experiment is classed as functional, cell-based.
The test system of the next experiment is HeLa. The experiment can be described thus: Cytotoxicity against human HeLa cells assessed as reduction in cell viability incubated for 72 hrs by EZ-Cytox colorimetric assay. In kind it is functional, cell-based.
The subject of the next experiment is MDA-MB-231. In words: Cytotoxicity against human MDA-MB-231 cells assessed as reduction in cell viability incubated for 72 hrs by EZ-Cytox colorimetric assay. In kind it is functional, cell-based. As to conditions: for IC50: MDA-MB-231, 72 h.
A further experiment deals with A549. In words: Cytotoxicity against human A549 cells assessed as reduction in cell viability incubated for 72 hrs by EZ-Cytox colorimetric assay. In kind it is functional, cell-based. To be noted: for IC50: A549, 72 h.
A further experiment has as its system SW480. The experiment can be described thus: Cytotoxicity against human SW480 cells assessed as reduction in cell viability incubated for 72 hrs by EZ-Cytox colorimetric assay. The experiment is classed as functional, cell-based. To be noted: for IC50: SW480, 72 h.

The source made the active and inactive calls. The rule behind the calls is not given here. Bounds are passed on as bounds.

One may read the IC50 as the concentration needed to halve the response being measured. The molecule `CC(/C=C/C(=O)O)=C\[C@@H](C)C(=O)c1ccc(N(C)C)cc1` [TRICHOSTATIC ACID] yielded a half-inhibitory concentration (IC50) against Histone deacetylase of 95.13 µM.
For the molecule `CNc1ccc(C(=O)[C@H](C)C[C@@H](C)C(=O)O)cc1`, the IC50 at Histone deacetylase, in the experiment on U2OS, in the experiment with HeLa, with MDA-MB-231, in the experiment with A549 and with SW480 was above 100 µM each time.
On to `CC(/C=C/C(=O)NO[C@@H]1O[C@H](CO)[C@@H](O)[C@H](O)[C@H]1O)=C\[C@@H](C)C(=O)c1ccc(N(C)C)cc1`, for which the 50% inhibitory concentration (IC50) was determined as 23.63 µM against Histone deacetylase, 94.9 µM with U2OS and 72 µM in the experiment with SW480.
`CC(/C=C/C(=O)Nc1ccc(C(=O)N[C@@H](CCC(N)=O)C(=O)O)cc1)=C\[C@@H](C)C(=O)c1ccc(N(C)C)cc1`: the IC50 against Histone deacetylase is 19.96 µM; in the experiment on U2OS, above 100 µM; in the experiment on HeLa it was above 100 µM; in the experiment on MDA-MB-231, above 100 µM; in the experiment with A549, above 100 µM; in the experiment with SW480, above 100 µM.
For the molecule `CC(/C=C/C(=O)N[C@@H](CCC(N)=O)C(=O)O)=C\[C@@H](C)C(=O)c1ccc(N(C)C)cc1`, the IC50 on Histone deacetylase was above 100 µM.
As for `CNC(=O)/C=C/C(C)=C/[C@@H](C)C(=O)c1ccc(N(C)C)cc1`, the IC50 against Histone deacetylase is above 100 µM.
Same read-out and setting: the value for `CC(/C=C/C(=O)N[C@@H](CCC(=O)O)C(=O)O)=C\[C@@H](C)C(=O)c1ccc(N(C)C)cc1` was above 100 µM; that for `CC(/C=C/C(N)=O)=C\[C@@H](C)C(=O)c1ccc(N(C)C)cc1` was above 100 µM.
As to `C[C@H](C[C@@H](C)C(=O)c1ccc(N(C)C)cc1)C(=O)O`, the IC50 against Histone deacetylase is 39.67 µM; with U2OS, above 100 µM; with HeLa, above 100 µM; with MDA-MB-231, above 100 µM; in the experiment with A549, above 100 µM; in the experiment with SW480, above 100 µM.
`CC(/C=C/C(=O)NO)=C\[C@@H](C)C(=O)c1ccc(N(C)C)cc1`: the outcome in the experiment with U2OS, in the experiment on HeLa, in the experiment on MDA-MB-231, with A549 and with SW480 was Active.

The record behind these values is ChEMBL document CHEMBL4840333, “Ulleunganilines A-C, Trichostatin Analogues Bearing a Modified Side Chain from Streptomyces sp. 13F051” (J Nat Prod, 2021).
